Assay results reported in the NIST ThermoML archive (doi:10.1016/j.jct.2009.07.020).

Tests used:
[1] = 293.15 K, 101.33 kPa, Liquid; for speed of sound: Sing-around technique in a fixed-path interferometer; for mass density: Vibrating tube method
[2] = xn = mol fraction of the nth substance listed; conditions: 101 kPa, Liquid; for speed of sound: Sing-around technique in a fixed-path interferometer; for mass density: Vibrating tube method

BrCCBr [1,2-dibromoethane]
[1]
Conditions	mass density [kg/m3]	speed of sound [m/s]
–	2179.6	1007

BrCCBr [1,2-dibromoethane] + CCCCCCCCCCO
[2]
Conditions	mass density, 293.15 K [kg/m3]	mass density, 313.15 K [kg/m3]	speed of sound, 293.15 K [m/s]	speed of sound, 313.15 K [m/s]
x1 = 0.0713	873.696	859.289	1363.1	1296.4
x1 = 0.1171	903.742	888.874	1341.8	1275.4
x1 = 0.1704	940.915	925.398	1317.2	1251.8
x1 = 0.2858	1030.69	1013.6	1266	1202.9
x1 = 0.3911	1125.7	1106.72	1218.3	1157.2
x1 = 0.51	1252.15	1230.3	1167.7	1108.9
x1 = 0.543	1291.44	1268.7	1153.4	1095
x1 = 0.5903	1351.8	1327.54	1134.1	1076.8
x1 = 0.6875	1492.47	1464.54	1095.3	1040.5
x1 = 0.7289	1560.17	1530.45	1080	1025.9
x1 = 0.7873	1665.23	1632.9	1059.7	1006.6
x1 = 0.8411	1773.36	1738.48	1042.2	990.48
x1 = 0.9006	1908.2	1870.5	1025.5	975.34
x1 = 0.9495	2033.54	1993.5	1015.6	965.65
x1 = 1	2179.6	2137.7	1007	955.97

ClCCCl [1,2-dichloroethane]
[1]
Conditions	mass density [kg/m3]	speed of sound [m/s]
–	1252.74	1212.8

ClCCCl [1,2-dichloroethane] + CCCCCCCCCCO
[2]
Conditions	mass density, 293.15 K [kg/m3]	mass density, 313.15 K [kg/m3]	speed of sound, 293.15 K [m/s]	speed of sound, 313.15 K [m/s]
x1 = 0.0692	841.579	827.391	1382.8	1314.9
x1 = 0.1136	849.567	835.077	1373.9	1305.7
x1 = 0.2034	867.401	852.221	1355.3	1287.4
x1 = 0.2938	887.762	871.824	1335.6	1267.8
x1 = 0.3645	905.827	889.228	1319.7	1251.3
x1 = 0.507	949.509	931.327	1287.5	1217.8
x1 = 0.6043	986.214	966.695	1265.4	1195.1
x1 = 0.699	1029.23	1008.07	1244.6	1174.3
x1 = 0.7455	1053.66	1031.55	1235.1	1164.8
x1 = 0.7816	1074.54	1051.57	1228.3	1157.8
x1 = 0.8142	1094.99	1071.24	1222.5	1151.9
x1 = 0.8429	1114.4	1089.86	1218.1	1147.4
x1 = 0.9034	1160.56	1134.21	1211.6	1140.5
x1 = 0.9579	1209.39	1181.34	1210.4	1136.8
x1 = 1	1252.74	1223.38	1212.8	1136

CCCCCCCCCCO [decan-1-ol]
[1]
Conditions	mass density [kg/m3]	speed of sound [m/s]
–	829.991	1396.4

CCCCCCCCCCO [decan-1-ol] + BrCCBr
[2], x2 = 0
Conditions	mass density [kg/m3]	speed of sound [m/s]
293.15 K	829.991	1396.4
313.15 K	816.264	1328.7

CCCCCCCCCCO [decan-1-ol] + ClC(Cl)=C(Cl)Cl
[2], x2 = 0
Conditions	mass density [kg/m3]	speed of sound [m/s]
293.15 K	829.991	1396.4
313.15 K	816.264	1328.7

CCCCCCCCCCO [decan-1-ol] + ClCCCl
[2], x2 = 0
Conditions	mass density [kg/m3]	speed of sound [m/s]
293.15 K	829.991	1396.4
313.15 K	816.264	1328.7

ClC(Cl)=C(Cl)Cl [tetrachloroethene]
[1]
Conditions	mass density [kg/m3]	speed of sound [m/s]
–	1622.39	1053.8

ClC(Cl)=C(Cl)Cl [tetrachloroethene] + CCCCCCCCCCO
[2]
Conditions	mass density, 293.15 K [kg/m3]	mass density, 313.15 K [kg/m3]	speed of sound, 293.15 K [m/s]	speed of sound, 313.15 K [m/s]
x1 = 0.057	854.607	840.425	1378.1	1310.7
x1 = 0.1355	890.745	875.885	1350.2	1283.1
x1 = 0.2186	932.241	916.585	1319.8	1252.8
x1 = 0.2882	969.944	953.338	1294.8	1228.4
x1 = 0.3824	1025.8	1007.72	1260.6	1195
x1 = 0.4464	1067.31	1048.17	1237.2	1172
x1 = 0.499	1103.86	1083.69	1218.5	1153.5
x1 = 0.5849	1168.91	1146.94	1187.2	1122.7
x1 = 0.6417	1216.01	1192.81	1166.5	1102.9
x1 = 0.7175	1284.75	1259.72	1139.4	1076
x1 = 0.7786	1345.73	1319.21	1117.7	1054.1
x1 = 0.8527	1427.55	1398.72	1092.4	1029.3
x1 = 0.9003	1485.31	1455.08	1077.6	1015
x1 = 0.941	1538.45	1507.24	1065.9	1005
x1 = 1	1622.39	1588.98	1053.8	993.96
